According to PubChem BioAssay AID248 (DTP/NCI, 2004):
Values joined by “and” are separate entries in the source; they are usually repeats but may differ in a detail not shown here. Equal values may be shown once. Inconclusive results and toxic doses are left out. Cut-off read from the data, not from the text of the source: active = T/C of 150% or more; inactive = T/C below 125%.

System: L1210 leukemia ip in BDF1 mice, survival T/C
Assay: NCI In Vivo Anticancer Drug Screen. Data for tumor model L1210 Leukemia (intraperitoneal) in B6D2F1 (BDF1) mice
Settings: endpoint: mean survival time, higher = longer survival
Summary of the method: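 Each compound was tested against a transplantable tumor grown in mice. The endpoint was survival, with treated animals benchmarked against vehicle controls as a simple ratio.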

[1] = dose: 100.0 mg/kg/injection, schedule: Q01DX001 (ip), vehicle: Klucel (hydroxypropylcellulose) (HPC)
[2] = dose: 200.0 mg/kg/injection, schedule: Q01DX001 (ip), vehicle: Klucel (hydroxypropylcellulose) (HPC)
[3] = dose: 400.0 mg/kg/injection, schedule: Q01DX001 (ip), vehicle: Klucel (hydroxypropylcellulose) (HPC)
[4] = dose: 100.0 mg/kg/injection, schedule: Q01DX009 (ip), vehicle: Klucel (hydroxypropylcellulose) (HPC)
[5] = dose: 200.0 mg/kg/injection, schedule: Q01DX009 (ip), vehicle: Klucel (hydroxypropylcellulose) (HPC)
[6] = dose: 400.0 mg/kg/injection, schedule: Q01DX009 (ip), vehicle: Klucel (hydroxypropylcellulose) (HPC)
[7] = dose: 100.0 mg/kg/injection, schedule: Q04DX003 (ip), vehicle: saline with Tween-80
[8] = dose: 200.0 mg/kg/injection, schedule: Q04DX003 (ip), vehicle: saline with Tween-80
[9] = dose: 100.0 mg/kg/injection, schedule: Q01DX009 (ip), vehicle: saline with Tween-80
[10] = dose: 200.0 mg/kg/injection, schedule: Q01DX009 (ip), vehicle: saline with Tween-80
[11] = dose: 400.0 mg/kg/injection, schedule: Q01DX009 (ip), vehicle: saline with Tween-80
[12] = dose: 50.0 mg/kg/injection, schedule: Q01DX001 (ip), vehicle: carboxymethylcellulose (CMC)
[13] = dose: 100.0 mg/kg/injection, schedule: Q01DX001 (ip), vehicle: carboxymethylcellulose (CMC)
[14] = dose: 200.0 mg/kg/injection, schedule: Q01DX001 (ip), vehicle: carboxymethylcellulose (CMC)
[15] = dose: 400.0 mg/kg/injection, schedule: Q01DX001 (ip), vehicle: carboxymethylcellulose (CMC)
[16] = dose: 100.0 mg/kg/injection, schedule: Q04DX003 (ip), vehicle: Klucel (hydroxypropylcellulose) (HPC)
[17] = dose: 200.0 mg/kg/injection, schedule: Q04DX003 (ip), vehicle: Klucel (hydroxypropylcellulose) (HPC)
[18] = dose: 400.0 mg/kg/injection, schedule: Q04DX003 (ip), vehicle: Klucel (hydroxypropylcellulose) (HPC)

Measured: T/C

CCCCCCCCCCCCOc1ccc(C2(c3ccc(CCCCCCCCCCCC)cc3)CCCCC2)cc1
inactive: [1] 101 % of control | [2] 101 % of control | [3] 106 % of control

CC(=O)N(C)c1ccc(NC(=O)c2c(Br)c(Br)c(Br)c(Br)c2C(=O)O)cc1
inactive: [4] 98 % of control | [5] 89 % of control | [6] 105 % of control

O=C(O)C1OC(Oc2ccc3oc4ccccc4c(=O)c3c2)C(O)C(O)C1O (configuration not stated)
inactive: [4] 91 % of control | [5] 97 % of control | [6] 111 % of control

O=Cc1[nH]c(=O)[nH]c(=O)c1Cc1ccc(Cl)cc1
inactive: [7] 98 % of control | [8] 102 % of control

COc1cc2c(cc1OC)C(CCC(=O)O)=NCC2
inactive: dose: 12.5 mg/kg/injection, schedule: Q04DX002 (ip), vehicle: saline 101 % of control | dose: 25.0 mg/kg/injection, schedule: Q04DX002 (ip), vehicle: saline 104 % of control | dose: 50.0 mg/kg/injection, schedule: Q04DX002 (ip), vehicle: saline 90 % of control

CN(C)CCCN1c2ccccc2C(C)(C)c2ccccc21
inactive: dose: 50.0 mg/kg/injection, schedule: Q01DX001 (ip), vehicle: saline 96 % of control | dose: 50.0 mg/kg/injection, schedule: Q01DX009 (ip), vehicle: saline with Tween-80 104 % of control | dose: 50.0 mg/kg/injection, schedule: Q01DX009 (ip), vehicle: saline 106 % of control | dose: 100.0 mg/kg/injection, schedule: Q01DX001 (ip), vehicle: saline 96 % of control | [9] 116 % of control | dose: 100.0 mg/kg/injection, schedule: Q01DX009 (ip), vehicle: saline 118 % of control | [7] 107 % of control | dose: 200.0 mg/kg/injection, schedule: Q01DX001 (ip), vehicle: saline 104 % of control | [8] 102 % of control

O=C(CCCC(=O)N/N=C/C1CC=CCC1)N/N=C\C1CC=CCC1 (configuration not stated)
inactive: dose: 50.0 mg/kg/injection, schedule: Q01DX001 (ip), vehicle: other 90 % of control | dose: 100.0 mg/kg/injection, schedule: Q01DX001 (ip), vehicle: other 90 % of control | dose: 400.0 mg/kg/injection, schedule: Q01DX001 (ip), vehicle: other 98 % of control

Brc1cnn2c1NCC2
inactive: dose: 12.5 mg/kg/injection, schedule: Q01DX009 (ip), vehicle: water 100 % of control | dose: 12.5 mg/kg/injection, schedule: Q04DX003 (ip), vehicle: water 95 % of control | dose: 25.0 mg/kg/injection, schedule: Q01DX009 (ip), vehicle: water 101 % of control | dose: 25.0 mg/kg/injection, schedule: Q04DX003 (ip), vehicle: water 100 % of control | dose: 50.0 mg/kg/injection, schedule: Q01DX009 (ip), vehicle: water 97 % of control | dose: 50.0 mg/kg/injection, schedule: Q04DX003 (ip), vehicle: water 101 % of control | dose: 100.0 mg/kg/injection, schedule: Q01DX009 (ip), vehicle: water 97 % of control and 89 % of control | dose: 200.0 mg/kg/injection, schedule: Q01DX009 (ip), vehicle: water 93 % of control

CCCCCCCCCCCC(=O)N/N=C(\C)c1cccc2ccccc12
inactive: dose: 25.0 mg/kg/injection, schedule: Q01DX009 (ip), vehicle: Klucel (hydroxypropylcellulose) (HPC) 92 % of control | dose: 50.0 mg/kg/injection, schedule: Q01DX009 (ip), vehicle: Klucel (hydroxypropylcellulose) (HPC) 96 % of control | [4] 88 % of control and 92 % of control

COc1cc(/C=N/NC(=O)c2ccccc2)cc(OC)c1OC
inactive: [9] 97 % of control | [7] 90 % of control | [10] 92 % of control | [8] 91 % of control | [11] 97 % of control | dose: 400.0 mg/kg/injection, schedule: Q04DX003 (ip), vehicle: saline with Tween-80 90 % of control

OCC(O)C(O)/C=N/N(Cc1ccccc1)c1ccccc1 (configuration not stated)
inactive: [12] 103 % of control | [13] 101 % of control | [14] 101 % of control | [15] 97 % of control

O=C1C(=O)C2(O)C(=O)C12O (configuration not stated)
inactive: dose: 100.0 mg/kg/injection, schedule: Q04DX003 (ip), vehicle: saline 91 % of control

N#CC1CN(c2ccccc2)CC1=O (configuration not stated)
inactive: [4] 97 % of control | [5] 96 % of control

CC(Nc1nc(SCc2ccccc2)c2ncn(C3OC(CO)C(O)C3O)c2n1)C(=O)O (configuration not stated)
inactive: [12] 107 % of control | [13] 109 % of control | [14] 104 % of control | [15] 104 % of control

C#CP(CCCC)CCCC
inactive: dose: 25.0 mg/kg/injection, schedule: Q04DX002 (ip), vehicle: saline with Tween-80 97 % of control | dose: 50.0 mg/kg/injection, schedule: Q04DX002 (ip), vehicle: saline with Tween-80 91 % of control | dose: 100.0 mg/kg/injection, schedule: Q04DX002 (ip), vehicle: saline with Tween-80 95 % of control and 102 % of control

CC(NC(=O)C1CC2c3cccc4[nH]cc(c34)CC2N(C)C1)C(C)(C)C (configuration not stated)
inactive: dose: 20.0 mg/kg/injection, schedule: Q01DX001 (ip), vehicle: Klucel (hydroxypropylcellulose) (HPC) 96 % of control | dose: 40.0 mg/kg/injection, schedule: Q01DX001 (ip), vehicle: Klucel (hydroxypropylcellulose) (HPC) 101 % of control | dose: 80.0 mg/kg/injection, schedule: Q01DX001 (ip), vehicle: Klucel (hydroxypropylcellulose) (HPC) 104 % of control

O=C1Cc2ccccc2/C=C\c2ccccc21
inactive: [1] 97 % of control | [16] 102 % of control | [2] 100 % of control | [17] 96 % of control | [3] 106 % of control | [18] 102 % of control

CC(C)Oc1c(NCCO)c2cc(Cl)ccc2oc1=O
inactive: dose: 100.0 mg/kg/injection, schedule: Q04DX002 (ip), vehicle: Klucel (hydroxypropylcellulose) (HPC) 103 % of control | dose: 200.0 mg/kg/injection, schedule: Q04DX002 (ip), vehicle: Klucel (hydroxypropylcellulose) (HPC) 106 % of control | dose: 400.0 mg/kg/injection, schedule: Q04DX002 (ip), vehicle: Klucel (hydroxypropylcellulose) (HPC) 106 % of control

Cc1ccc2[nH]c3cc4ccncc4cc3c2c1
inactive: [1] 89 % of control | [2] 94 % of control | [3] 93 % of control

Cc1c([N+](=O)[O-])cc(C(C)(C)C)c(OC(=O)Nc2ccccc2)c1[N+](=O)[O-]
inactive: dose: 12.5 mg/kg/injection, schedule: Q04DX003 (ip), vehicle: Klucel (hydroxypropylcellulose) (HPC) 93 % of control | dose: 25.0 mg/kg/injection, schedule: Q04DX003 (ip), vehicle: Klucel (hydroxypropylcellulose) (HPC) 106 % of control | dose: 50.0 mg/kg/injection, schedule: Q04DX003 (ip), vehicle: Klucel (hydroxypropylcellulose) (HPC) 95 % of control

CC(C)CC(Br)C(=O)NCC(=O)O (configuration not stated)
inactive: [9] 88 % of control | [10] 91 % of control | [11] 89 % of control

CCOc1ccccc1NC(=O)Nc1ccccc1C
inactive: [4] 102 % of control | [16] 101 % of control | [5] 100 % of control | [17] 105 % of control | [6] 94 % of control | [18] 103 % of control

CCCOC(=O)COc1ccc(Cl)cc1
inactive: [4] 97 % of control | [5] 95 % of control | [6] 104 % of control
